Legend:
[1] = system: THP-1 cells; test: TNFα generation assay; format: cell-based, human; conditions: Homo sapiens, THP-1, THP-1 cells; Table 22; read-out: IC50 in TNFα generation assay
Method in brief: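 Secreted TNFα in supernatant quantified by ELISA or AlphaLISA after 7 h culture on human IgG-coated wells (10 μg/ml coating). Cells were IFN-γ-differentiated THP-1 (10 ng/ml, 2 days), exposed to compound for 30 min at room temperature before plating.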

[2] = molecular target: T1, glutathione S-transferase (GST)-fused full-length human Syk protein (Homo sapiens, UniProt P43405); test: Syk enzyme assay; format: biochemical; conditions: Syk enzyme assay, Test Example 1; read-out: IC50 of Syk-inhibitory activity
T1 construct: (GST)-fused full-length human Syk protein; GST (glutathione S-transferase); purchased Carna Biosciences
Method in brief: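 Baculovirus-expressed enzyme (1.2 ng) was preincubated with compound in HEPES pH 7.0/MgCl2/DTT buffer, 2 min shaking then 13 min at room temperature. Biotin-EDPDYEWPSA-NH2 (0.4 μM final) and ATP (27 μM final) were added for 40 min at room temperature. EDTA stop, streptavidin-XL/PT66-K TR-FRET at 615/665 nm gave IC50.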

| SMILES | IC50 [1] | IC50 [2] |
| --- | --- | --- |
| CCCC[C@H](CN)Nc1nc(Nc2ccc3c(cnn3CCF)c2)c(C(N)=O)cc1F [Example 006-414, (R)-6-((1-aminohexan-2-yl)amino)-5-fluoro-2-((1-(2-fluoroethyl)-1H-indazol-5-yl)amino)nicotinamide] | 65 to 130 nM | < 10 nM |
| CC(C)C[C@H](CN)Nc1nc(Nc2ccc3c(cnn3CCF)c2)c(C(N)=O)cc1F [Example 006-415, (R)-6-((1-amino-4-methylpentan-2-yl)amino)-5-fluoro-2-((1-(2-fluoroethyl)-1H-indazol-5-yl)amino)nicotinamide] | 65 to 130 nM | < 10 nM |
| CC[C@@H](Nc1nc(Nc2ccc3c(cnn3CCF)c2)c(C(N)=O)cc1F)[C@H](C)N [Example 006-416, 6-(((2S,3R)-2-aminopentan-3-yl)amino)-5-fluoro-2-((1-(2-fluoroethyl)-1H-indazol-5-yl)amino)nicotinamide] | 65 to 130 nM | < 10 nM |
| CCC[C@@H](Nc1nc(Nc2ccc3c(cnn3CCF)c2)c(C(N)=O)cc1F)[C@H](C)N [Example 006-417, 6-(((2S,3R)-2-aminohexan-3-yl)amino)-5-fluoro-2-((1-(2-fluoroethyl)-1H-indazol-5-yl)amino)nicotinamide] | 65 to 130 nM | < 10 nM |
| CCCC[C@@H](Nc1nc(Nc2ccc3c(cnn3CCF)c2)c(C(N)=O)cc1F)[C@H](C)N [Example 006-418, 6-(((2S,3R)-2-aminoheptan-3-yl)amino)-5-fluoro-2-((1-(2-fluoroethyl)-1H-indazol-5-yl)amino)nicotinamide] | 65 to 130 nM | < 10 nM |
| C[C@H](N)[C@@H](CC1CC1)Nc1nc(Nc2ccc3c(cnn3CCF)c2)c(C(N)=O)cc1F [Example 006-420, 6-(((2R,3S)-3-amino-1-cyclopropylbutan-2-yl)amino)-5-fluoro-2-((1-(2-fluoroethyl)-1H-indazol-5-yl)amino)nicotinamide] | 65 to 130 nM | < 10 nM |
| COc1cc(Nc2nc(N[C@H](C3CC3)[C@H](C)N)c(F)cc2C(N)=O)cc(OC)n1 [Example 006-429, 6-(((1R,2S)-2-amino-1-cyclopropylpropyl)amino)-2-((2,6-dimethoxypyridin-4-yl)amino)-5-fluoronicotinamide] | 65 to 130 nM | < 10 nM |
| COc1cc(Nc2nc(N[C@H](C3CC3)[C@H](C)N)c(F)cc2C(N)=O)ccn1 [Example 006-430, 6-(((1R,2S)-2-amino-1-cyclopropylpropyl)amino)-5-fluoro-2-((2-methoxypyridin-4-yl)amino)nicotinamide] | 65 to 130 nM | < 10 nM |
| COCCOc1cc(Nc2nc(N[C@H](C3CC3)[C@H](C)N)c(F)cc2C(N)=O)ccn1 [Example 006-431, 6-(((1R,2S)-2-amino-1-cyclopropylpropyl)amino)-5-fluoro-2-((2-(2-methoxyethoxy)pyridin-4-yl)amino)nicotinamide] | 65 to 130 nM | 10 to 50 nM |
| COc1nccc(Nc2nc(N[C@@H]3CCCC[C@@H]3N)c(F)cc2C(N)=O)c1F [Example 006-432, 6-(((1R,2S)-2-aminocyclohexyl)amino)-5-fluoro-2-((3-fluoro-2-methoxypyridin-4-yl)amino)nicotinamide] | 65 to 130 nM | 10 to 50 nM |
| Cc1cc(Nc2nc(N[C@H](C3CC3)[C@H](C)N)c(F)cc2C(N)=O)cnc1C [Example 006-434, 6-(((1R,2S)-2-amino-1-cyclopropylpropyl)amino)-2-((5,6-dimethylpyridin-3-yl)amino)-5-fluoronicotinamide] | < 65 nM | 50 to 100 nM |
| Cc1cc(Nc2nc(N[C@H](CC3CC3)[C@H](C)N)c(F)cc2C(N)=O)cnc1C [Example 006-435, 6-(((2R,3S)-3-amino-1-cyclopropylbutan-2-yl)amino)-2-((5,6-dimethylpyridin-3-yl)amino)-5-fluoronicotinamide] | 65 to 130 nM | < 10 nM |
| Cc1nn(C)c2ccc(Nc3nc(N[C@H](CC4CC4)[C@H](C)N)c(F)cc3C(N)=O)cc12 [Example 006-442, 6-(((2R,3S)-3-amino-1-cyclopropylbutan-2-yl)amino)-2-((1,3-dimethyl-1H-indazol-5-yl)amino)-5-fluoronicotinamide] | < 65 nM | < 10 nM |
| CCn1nc(C)c2cc(Nc3nc(N[C@H](CC4CC4)[C@H](C)N)c(F)cc3C(N)=O)ccc21 [Example 006-443, 6-(((2R,3S)-3-amino-1-cyclopropylbutan-2-yl)amino)-2-((1-ethyl-3-methyl-1H-indazol-5-yl)amino)-5-fluoronicotinamide] | 65 to 130 nM | < 10 nM |
| COCCn1nc(C)c2cc(Nc3nc(N[C@H](CC4CC4)[C@H](C)N)c(F)cc3C(N)=O)ccc21 [Example 006-444, 6-(((2R,3S)-3-amino-1-cyclopropylbutan-2-yl)amino)-5-fluoro-2-((1-(2-methoxyethyl)-3-methyl-1H-indazol-5-yl)amino)nicotinamide] | 65 to 130 nM | 50 to 100 nM |
| Cc1nn(CC(F)F)c2ccc(Nc3nc(N[C@H](CC4CC4)[C@H](C)N)c(F)cc3C(N)=O)cc12 [Example 006-445, 6-(((2R,3S)-3-amino-1-cyclopropylbutan-2-yl)amino)-2-((1-(2,2-difluoroethyl)-3-methyl-1H-indazol-5-yl)amino)-5-fluoronicotinamide] | 65 to 130 nM | < 10 nM |
| NC(=O)c1cc(F)c(N[C@@H]2CCCC[C@@H]2N)nc1Nc1cnc(-n2cccn2)c(Cl)c1 [Example 006-446, 6-(((1R,2S)-2-aminocyclohexyl)amino)-2-((5-chloro-6-(1H-pyrazol-1-yl)pyridin-3-yl)amino)-5-fluoronicotinamide] | 130 to 200 nM | 10 to 50 nM |
| NC(=O)c1cc(F)c(N[C@@H]2CCCC[C@@H]2N)nc1Nc1cnc(-n2cccn2)c(F)c1 [Example 006-447, 6-(((1R,2S)-2-aminocyclohexyl)amino)-5-fluoro-2-((5-fluoro-6-(1H-pyrazol-1-yl)pyridin-3-yl)amino)nicotinamide] | 130 to 200 nM | 10 to 50 nM |
| NC(=O)c1cc(F)c(N[C@@H]2CCCC[C@@H]2N)nc1Nc1cnc(-n2cccn2)c(-n2nccn2)c1 [Example 006-449, 2-((6-(1H-pyrazol-1-yl)-5-(2H-1,2,3-triazol-2-yl)pyridin-3-yl)amino)-6-(((1R,2S)-2-aminocyclohexyl)amino)-5-fluoronicotinamide] | 130 to 200 nM | 50 to 100 nM |
| CCc1nn(C)c2ccc(Nc3nc(N[C@@H]4CCCC[C@@H]4N)c(F)cc3C(N)=O)cc12 [Example 006-451, 6-(((1R,2S)-2-aminocyclohexyl)amino)-2-((3-ethyl-1-methyl-1H-indazol-5-yl)amino)-5-fluoronicotinamide] | < 65 nM | < 10 nM |
| CCc1nn(CC)c2ccc(Nc3nc(N[C@@H]4CCCC[C@@H]4N)c(F)cc3C(N)=O)cc12 [Example 006-452, 6-(((1R,2S)-2-aminocyclohexyl)amino)-2-((1,3-diethyl-1H-indazol-5-yl)amino)-5-fluoronicotinamide] | < 65 nM | < 10 nM |
| CCc1nn(CCOC)c2ccc(Nc3nc(N[C@@H]4CCCC[C@@H]4N)c(F)cc3C(N)=O)cc12 [Example 006-453, 6-(((1R,2S)-2-aminocyclohexyl)amino)-2-((3-ethyl-1-(2-methoxyethyl)-1H-indazol-5-yl)amino)-5-fluoronicotinamide] | < 65 nM | < 10 nM |
| CCc1nn(CCF)c2ccc(Nc3nc(N[C@@H]4CCCC[C@@H]4N)c(F)cc3C(N)=O)cc12 [Example 006-454, 6-(((1R,2S)-2-aminocyclohexyl)amino)-2-((3-ethyl-1-(2-fluoroethyl)-1H-indazol-5-yl)amino)-5-fluoronicotinamide] | 65 to 130 nM | < 10 nM |
| CCc1nn(CC(F)F)c2ccc(Nc3nc(N[C@@H]4CCCC[C@@H]4N)c(F)cc3C(N)=O)cc12 [Example 006-455, 6-(((1R,2S)-2-aminocyclohexyl)amino)-2-((1-(2,2-difluoroethyl)-3-ethyl-1H-indazol-5-yl)amino)-5-fluoronicotinamide] | 65 to 130 nM | < 10 nM |
| CCCc1nn(C)c2ccc(Nc3nc(N[C@@H]4CCCC[C@@H]4N)c(F)cc3C(N)=O)cc12 [Example 006-456, 6-(((1R,2S)-2-aminocyclohexyl)amino)-5-fluoro-2-((1-methyl-3-propyl-1H-indazol-5-yl)amino)nicotinamide] | 130 to 200 nM | < 10 nM |
| CCCc1nn(CC)c2ccc(Nc3nc(N[C@@H]4CCCC[C@@H]4N)c(F)cc3C(N)=O)cc12 [Example 006-457, 6-(((1R,2S)-2-aminocyclohexyl)amino)-2-((1-ethyl-3-propyl-1H-indazol-5-yl)amino)-5-fluoronicotinamide] | 130 to 200 nM | < 10 nM |
| CCCc1nn(CCOC)c2ccc(Nc3nc(N[C@@H]4CCCC[C@@H]4N)c(F)cc3C(N)=O)cc12 [Example 006-458, 6-(((1R,2S)-2-aminocyclohexyl)amino)-5-fluoro-2-((1-(2-methoxyethyl)-3-propyl-1H-indazol-5-yl)amino)nicotinamide] | 130 to 200 nM | < 10 nM |
| CCCc1nn(CCF)c2ccc(Nc3nc(N[C@@H]4CCCC[C@@H]4N)c(F)cc3C(N)=O)cc12 [Example 006-459, 6-(((1R,2S)-2-aminocyclohexyl)amino)-5-fluoro-2-((1-(2-fluoroethyl)-3-propyl-1H-indazol-5-yl)amino)nicotinamide] | 65 to 130 nM | < 10 nM |

Source: US8895585B2, “Nicotinamide derivative or salt thereof” (FUJIFILM Corporation, priority 2010, dated 2014)
